How the values were obtained:
Type in all cases: physicochemical
[1] = Heat-up/cool-down crystallisation screen of sorbate salt (Example 10, Experiments 5, 8); conditions: for Observations (t = 1 @ T = 20° C.): Tabernanthalog sorbate salt (Form A) crystallised from binary solvents, solvent A 3.0 vol plus solvent B, one pair per sample; for XRPD (centrifuged, wet): wet pellet
Procedure: The relevant solvent (0.225 ml, 3.0 vol) was added to the appropriate vial and the suspensions were stirred and warmed to temperature. If dissolution was not observed, further solvent was added until the solute dissolved, or aliquots of a secondary co-solvent were added to complete dissolution. Once dissolved, the solutions were left to cool down and stand undisturbed under sub-ambient conditions for several days. After crystallisation was judged complete, the products were isolated by centrifugation and the pellets were dried at 40° C. under reduced pressure. Products from the crystallisation (wet and dry) were initially analysed by XRPD (9-minute method), further analyses of certain products were performed by ^1H NMR, DSC and TGA, if the diffraction pattern indicated differences.

[2] = Examination of variability of fusion temperature of sorbate Form A (DSC)
Procedure: The factors that were assessed to explain the observed variability in fusion temperature found amongst Form A samples were sample loading, preferred orientation and particle size/homogeneity (Table 271). A weak relationship between sample loading and melt onset was observed, the remainder of the factors examined, appeared to be unrelated.
DSC data were collected from 25 to 220C at a scan rate of at 10° C. min^−1 (Table 292).

[3] = Heat-up/cool down (HUCD) crystallization of the monofumarate salt (Experiment Reference 11); conditions: for XRPD (oven dried): form of product from HUCD crystallization of tabernanthalog fumarate Sample Reference 1 (Pattern #1), solvents per sample as in E1; for Observations (t = 0 @ T = 20° C.): input tabernanthalog fumarate Sample Reference 1 (Pattern #1), Solvent A/B: 11-A acetone/water, 11-B acetonitrile/water, 11-C butanol/water, 11-D tBME/methanol, 11-E DCM/methanol, 11-F ethanol/water, 11-G methyl acetate/water/methanol, 11-H 2-propanol/water, 11-1 methanol, 11-J MEK/water, 11-K 2-MeTHF/methanol, 11-L THF/water, 11-M toluene/methanol, 11-N water, 11-O dioxane/water, 11-P CPME/methan
Procedure: Separate portions of the tabernanthalog monofumarate salt (Pattern #1, Sample Reference 1, ca 75 mg, 1.0 wt.) were charged to separate vessels. The appropriate solvents (750 μl, 10.0 vol, refer to Table 106) were charged to the relevant vessels and subsequent charges of the appropriate co-solvent were made to accomplish dissolution at reflux. The solutions were cooled to 18 to 23° C. and allowed to stand undisturbed, until crystallization was judged complete. After this time the products were isolated by centrifugation, washed with recycled maturation solvent, dried under reduced pressure at 40° C. and analyzed by XRPD for evidence of alternative crystalline forms.

[4] = Experiment 5, heat-up/cool-down crystallisation from binary solvents
[5] = DSC 25-220° C. at 10° C. min^−1, batches of sorbate salt Form A
[6] = DSC 25 to 220C at 10° C. min−1, tabernanthalog sorbate Form A samples
[7] = DSC melt endset, 25 to 220C at 10° C. min−1, tabernanthalog sorbate Form A samples
[8] = DSC melt peak, 25 to 220C at 10° C. min−1, tabernanthalog sorbate Form A samples

C/C=C/C=C/C(=O)O.COc1ccc2c3c([nH]c2c1)CCN(C)CC3 [Experiment 5-Sample Q]
Observations (t = 1 @ T = 20° C.) ([1]; Experiment 5): Solid | XRPD (oven dried @ 40° C., 20 h) [1, 4]: Form A | XRPD (centrifuged, wet) [1, 4]: Pattern #1

CC=CC=CC(=O)O.COc1ccc2c3c([nH]c2c1)CCN(C)CC3 [Experiment 5-Sample R]
Observations (t = 1 @ T = 20° C.) ([1]; Experiment 5): Liquid | XRPD (oven dried @ 40° C., 20 h) [1, 4]: Form A | XRPD (centrifuged, wet) [1, 4]: Pattern #4

C/C=C/C=C/C(=O)O.COc1ccc2c3c([nH]c2c1)CCN(C)CC3 [Experiment 6-Sample C1]
Endset [2, 5]: 151.0 °C | melt enthalpy [2, 5]: −100.5 Jg^−1 | melt onset [2, 5]: 144.7 °C | peak [2, 5]: 148.8 °C | melt enthalpy [2, 6]: −100.48 Jg-1 | melt onset [2, 6]: 144.66 °C | Endset [2, 7]: 151.02 °C | peak [2, 8]: 148.83 °C

C/C=C/C=C/C(=O)O.COc1ccc2c3c([nH]c2c1)CCN(C)CC3 [Experiment 6-Sample D1]
Endset [2, 5]: 150.2 °C | melt enthalpy [2, 5]: −105.7 Jg^−1 | melt onset [2, 5]: 144.0 °C | peak [2, 5]: 148.0 °C | melt enthalpy [2, 6]: −166.35 Jg-1 | melt onset [2, 6]: 144.03 °C | Endset [2, 7]: 150.17 °C | peak [2, 8]: 148.00 °C

C/C=C/C=C/C(=O)O.COc1ccc2c3c([nH]c2c1)CCN(C)CC3 [Experiment 6-Sample E1]
Endset [2, 5]: 151.6 °C | melt enthalpy [2, 5]: −105.7 Jg^−1 | melt onset [2, 5]: 145.0 °C | peak [2, 5]: 148.8 °C | melt enthalpy [2, 6]: −105.68 Jg-1 | melt onset [2, 6]: 145.00 °C | Endset [2, 7]: 151.59 °C | peak [2, 8]: 148.83 °C

C/C=C/C=C/C(=O)O.COc1ccc2c3c([nH]c2c1)CCN(C)CC3 [Experiment 7-Sample A neat]
Endset [2, 5]: 148.5 °C | melt enthalpy [2, 5]: −122.5 Jg^−1 | melt onset [2, 5]: 144.4 °C | peak [2, 5]: 146.8 °C | melt enthalpy [2, 6]: −122.47 Jg-1 | melt onset [2, 6]: 144.39 °C | Endset [2, 7]: 148.53 °C | peak [2, 8]: 146.83 °C

CC=CC=CC(=O)O.COc1ccc2c3c([nH]c2c1)CCN(C)CC3 [Experiment 8-Sample A]
XRPD (centrifuged, wet) ([1]; Experiment 8, repeat of HUCD crystallisations aiming at Pattern #1 (water) and Pattern #6 (heptane/ethyl formate)): Pattern #1

C/C=C/C=C/C(=O)O.COc1ccc2c3c([nH]c2c1)CCN(C)CC3 [Pattern A1270-20-V2]
Endset [2, 5]: 152.0 °C | melt enthalpy [2, 5]: −84.1 Jg^−1 | melt onset [2, 5]: 143.9 °C | peak [2, 5]: 148.8 °C | melt enthalpy [2, 6]: −84.09 Jg-1 | melt onset [2, 6]: 143.89 °C | Endset [2, 7]: 151.95 °C | peak [2, 8]: 148.83 °C

COc1ccc2c3c([nH]c2c1)CCN(C)CC3.O=C(O)/C=C/C(=O)O [Sample 11-1]
XRPD (oven dried) [3]: Pattern #6b | Observations (t = 0 @ T = 20° C.) [3]: suspension

COc1ccc2c3c([nH]c2c1)CCN(C)CC3.O=C(O)/C=C/C(=O)O [Sample 11-A]
XRPD (oven dried) [3]: Pattern #6a | Observations (t = 0 @ T = 20° C.) [3]: suspension

Source: patent publication US20230257385A1, “SALT AND SOLID FORMS OF TABERNANTHALOG” (priority 2021, published 2023)
